What is called IC50 is the concentration that gives 50% inhibition. A high value points to a need for much substance.

The target in the test is T1, menin-MLL interaction (Homo sapiens, UniProt O00255).
T1 sequence (O00255 1-610): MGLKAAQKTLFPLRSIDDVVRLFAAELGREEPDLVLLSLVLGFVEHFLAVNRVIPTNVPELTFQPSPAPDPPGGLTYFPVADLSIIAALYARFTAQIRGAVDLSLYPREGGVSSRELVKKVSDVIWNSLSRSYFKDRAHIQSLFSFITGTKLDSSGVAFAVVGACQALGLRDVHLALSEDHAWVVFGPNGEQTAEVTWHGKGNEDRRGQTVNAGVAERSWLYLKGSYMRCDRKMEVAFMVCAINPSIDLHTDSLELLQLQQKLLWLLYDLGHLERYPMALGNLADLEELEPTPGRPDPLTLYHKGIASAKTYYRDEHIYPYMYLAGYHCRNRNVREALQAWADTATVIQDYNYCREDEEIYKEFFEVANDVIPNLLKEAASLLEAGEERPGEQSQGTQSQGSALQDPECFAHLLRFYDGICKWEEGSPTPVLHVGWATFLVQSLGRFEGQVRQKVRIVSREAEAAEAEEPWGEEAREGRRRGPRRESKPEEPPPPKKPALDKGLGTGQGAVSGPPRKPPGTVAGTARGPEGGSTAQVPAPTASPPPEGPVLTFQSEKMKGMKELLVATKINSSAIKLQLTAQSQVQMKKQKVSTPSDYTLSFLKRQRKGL
Nature of the test: biochemical.

Excerpt: Compounds that inhibit the interaction decrease the fluorescence anisotropy which is being used as a read-out for compound screening and for IC50 determination.

Take `COCCOCCn1cc(Cn2c(C#N)cc3c(C)c(CN4CCC(Nc5ncnc6sc(CC(F)(F)F)cc56)CC4)ccc32)cn1` [Compound 313]: the IC50 was < 0.1 µM.
The result for `N#Cc1cc2cc(CN3CC[C@@H](Nc4ncnc5sc(CC(F)(F)F)cc45)[C@@H](CO)C3)ccc2[nH]1` [Compound 164] reads < 0.1 µM; that for `N#Cc1ccc(N2CCC(N3CCN(c4ncnc5sc(CC(F)(F)F)cc45)CC3)CC2)cc1` [Compound 13], 0.1 to 0.5 µM.
`CC(C)NCC(O)Cn1c(C#N)cc2cc(CN3CCC(Nc4ncnc5sc(CC(F)(F)F)cc45)CC3)ccc21` (centres unmarked) [Compound 251] yielded an IC50 of 0.5 to 2 µM.
The result for `COCCOCC(O)(CO)Cn1c(C#N)cc2cc(CN3CCC(Nc4ncnc5sc(CC(F)(F)F)cc45)CC3)ccc21` (centres unmarked) [Compound 314] reads < 0.1 µM; that for `O=C(Cc1ccc(NS(=O)(=O)N2CCOCC2)cc1)N1CCN(c2ncnc3sc(CC(F)(F)F)cc23)CC1` [Compound 53], < 0.1 µM.
Next, `O=C(Cc1ccc2cc[nH]c2c1)N1CCN(c2ncnc3sc(CC(F)(F)F)cc23)CC1` [Compound 81]: 0.1 to 0.5 µM; `CC(O)(CO)Cn1c(C#N)cc2cc(CN3CCC(Nc4ncnc5sc(CC(F)(F)F)cc45)CC3)ccc21` (centres unmarked) [Compound 221]: < 0.1 µM; `CS(=O)(=O)N1CCC[C@H]1CN[C@H]1CN(Cc2ccccc2)CC[C@@H]1Nc1ncnc2sc(CC(F)(F)F)cc12` [Compound 172]: 0.1 to 0.5 µM.
Next, `Cc1ccccc1CN1CCC(Nc2ncnc3sc(CC(F)(F)F)cc23)CC1` [Compound 117]: 0.1 to 0.5 µM; `N#Cc1cc2cc(CN3CCC(Nc4ncnc5sc(CC(F)(F)F)cc45)CC3)ccc2n1Cc1c[nH]cn1` [Compound 185]: < 0.1 µM; `OCc1ccc(CN2CCC(CNc3ncnc4sc(CC(F)(F)F)cc34)CC2)cc1` [Compound 266]: 0.5 to 2 µM.
`CCN(c1ccc(CC(=O)N2CCN(C3=NC=NC4SC(CC(F)(F)F)=CC34)CC2)c(Cl)c1)S(C)(=O)=O` (centres unmarked) [Compound 66]: the IC50 is < 0.1 µM.
Next, `N#Cc1cc2cc(CN3CCC(Nc4ncnc5sc(CC(F)(F)F)cc45)C(N)C3)ccc2n1CC1CC1` (centres unmarked) [Compound 162]: < 0.1 µM; `O=C(CCCc1ccccc1)N1CCN(c2ncnc3sc(CC(F)(F)F)cc23)CC1` [Compound 93]: 0.5 to 2 µM.
The result for `FC(F)(F)Cc1cc2c(NCC3CCN(Cc4ccc(CN5CCOCC5)cc4)CC3)ncnc2s1` [Compound 272] reads 0.5 to 2 µM; that for `Cc1c(CN2CCC(Nc3ncnc4sc(CC(F)(F)F)cc34)CC2)ccc2c1cc(C#N)n2CC(CO)OC(C)C` (centres unmarked) [Compound 302], < 0.1 µM; that for `Cc1c(CN2CCC(Nc3ncnc4sc(CC(F)(F)F)cc34)CC2)c(O)cc2[nH]c(C#N)cc12` [Compound 384], < 0.1 µM.
In the case of `FC(F)(F)Cc1cc2c(NCC3CCN(Cc4ccc(N5CCCCC5)cc4)CC3)ncnc2s1` [Compound 255], the IC50 fell in the range of 0.1 to 0.5 µM.
The result for `CS(=O)(=O)N(CC1CC1)c1ccc(CC(=O)N2CCN(c3ncnc4sc(CC(F)(F)F)cc34)CC2)cc1` [Compound 102] reads 0.5 to 2 µM; that for `Cc1c(CN2CCC(Nc3ncnc4sc(CC(F)(F)F)cc34)CC2)ccc2c1cc(C#N)n2Cc1nccs1` [Compound 326], < 0.1 µM.
Regarding `N#Cc1cc2cc(CN3CCC(Nc4c(COCCCC5CCCC5)cnc5sc(CC(F)(F)F)cc45)CC3)ccc2[nH]1` [Compound 419], the IC50 lay in the range of 0.5 to 2 µM.
The result for `CNn1c(C#N)cc2cc(CN3CCC(Nc4ncnc5sc(CC(F)(F)F)cc45)CC3)ccc21` [Compound 231] reads 0.1 to 0.5 µM; that for `FC(F)(F)Cc1cc2c(NCC3CCN(Cc4ccc(C(F)(F)F)cc4)CC3)ncnc2s1` [Compound 276], 0.5 to 2 µM.
The result for `N#Cc1cc2c(O)c(CN3CCC(Nc4ncnc5sc(CC(F)(F)F)cc45)CC3)ccc2[nH]1` [Compound 235] reads 0.1 to 0.5 µM; that for `N#Cc1cc2cc(CN3CCC(Nc4ncnc5sc(CC(F)(F)F)cc45)CC3)ccc2n1CCn1cncn1` [Compound 209], < 0.1 µM.
The result for `Nc1ccc(CN2CCC(Nc3ncnc4sc(CC(F)(F)F)cc34)CC2)cc1` [Compound 139] reads 0.5 to 2 µM.
Regarding `N#Cc1cc2cc(CN3CCC(Nc4ncnc5sc(CC(F)(F)F)cc45)CC3)ccc2n1CC(CO)OC(F)F` (centres unmarked) [Compound 297], the IC50 was < 0.1 µM.
In the case of `Cc1nn[nH]c1Cn1c(C#N)cc2c(C)c(CN3CCC(Nc4ncnc5sc(CC(F)(F)F)cc45)CC3)ccc21` [Compound 327], the IC50 was < 0.1 µM.
Next, `FC(F)(F)Cc1cc2c(NCC3CCN(Cc4ccccc4C(F)(F)F)CC3)ncnc2s1` [Compound 274]: 0.5 to 2 µM.
Next, `O=C(Cc1ccccc1F)N1CCN(c2ncnc3sc(CC(F)(F)F)cc23)CC1` [Compound 72]: 0.1 to 0.5 µM; `Cc1c(CN2CCC(Nc3ncnc4sc(CC(F)(F)F)cc34)CC2)ccc2c1cc(C#N)n2Cc1cnn(C)c1` [Compound 379]: < 0.1 µM.
Next, `N#Cc1cc2c(OC(F)F)c(CN3CCC(Nc4ncnc5sc(CC(F)(F)F)cc45)CC3)ccc2[nH]1` [Compound 408]: 0.1 to 0.5 µM.
As for `COc1ccc(CN2CCC(CNc3ncnc4sc(CC(F)(F)F)cc34)CC2)c(Cl)c1` [Compound 257], the IC50 was 0.1 to 0.5 µM.
The result for `O=C(CCC1CCCCC1)N1CCN(c2ncnc3sc(CC(F)(F)F)cc23)CC1` [Compound 90] reads 0.5 to 2 µM; that for `O=C(Cc1ccc(Cl)cc1)N1CCN(c2ncnc3sc(CC(F)(F)F)cc23)CC1` [Compound 71], 0.1 to 0.5 µM.
Next, `Cc1c(CN2CCC(Nc3ncnc4sc(CC(F)(F)F)cc34)CC2)ccc2c1cc(C#N)n2CC(O)CN1CCNCC1` (centres unmarked) [Compound 358]: < 0.1 µM.
The result for `N#Cc1ccc(CN2CCC(CNc3ncnc4sc(CC(F)(F)F)cc34)CC2)cc1` [Compound 263] reads 0.1 to 0.5 µM; that for `Cc1ccc(CN2CCC(CNc3ncnc4sc(CC(F)(F)F)cc34)CC2)cc1` [Compound 275], 0.5 to 2 µM; that for `N#Cc1cc2cc(C(CO)N3CCC(Nc4ncnc5sc(CC(F)(F)F)cc45)CC3)ccc2[nH]1` (centres unmarked) [Compound 211], < 0.1 µM.
Compound `N#Cc1cc2cc(CN3CCC(Nc4ncnc5sc(CC(F)(F)F)cc45)CC3)c(F)cc2[nH]1` [Compound 234] registered an IC50 of 0.1 to 0.5 µM.
Next, `N#Cc1cc2c(Br)c(CN3CCC(Nc4ncnc5sc(CC(F)(F)F)cc45)CC3)ccc2[nH]1` [Compound 298]: < 0.1 µM; `CN(C)CCS(=O)(=O)Nc1ccc(CC(=O)N2CCN(c3ncnc4sc(CC(F)(F)F)cc34)CC2)cc1` [Compound 59]: < 0.1 µM; `N#Cc1cc2cc(CN3CCC(Nc4ncnc5sc(CC(F)(F)F)cc45)CC3)c(F)cc2n1CC(N)=O` [Compound 214]: < 0.1 µM.
Next, `FC(F)(F)Cc1cc2c(N3CCN(CC4CCCCC4)CC3)ncnc2s1` [Compound 9]: 0.1 to 0.5 µM; `FC(F)(F)Cc1cc2c(N3CCN(c4nnc(CC(F)(F)F)s4)CC3)ncnc2s1` [Compound 8]: 0.1 to 0.5 µM.
As for `Oc1cccc(O)c1CN1CCC(Nc2ncnc3sc(CC(F)(F)F)cc23)CC1` [Compound 111], the IC50 lay in the range of 0.1 to 0.5 µM.
Next, `NCc1ccc(CN2CCC(CNc3ncnc4sc(CC(F)(F)F)cc34)CC2)cc1` [Compound 265]: 0.5 to 2 µM; `N#Cc1cc2cc(CN3CCC(Nc4c(COCc5cc[nH]n5)cnc5sc(CC(F)(F)F)cc45)CC3)ccc2[nH]1` [Compound 420]: 0.5 to 2 µM.
On to `COc1cc2c(cc(C#N)n2CC(N)=O)c(C)c1CN1CCC(Nc2ncnc3sc(CC(F)(F)F)cc23)CC1` [Compound 385], for which the IC50 was < 0.1 µM.
Next, `CNC(=O)Cn1c(C#N)cc2cc(CN3CCC(Nc4ncnc5sc(CC(F)(F)F)cc45)CC3)ccc21` [Compound 212]: < 0.1 µM; `CS(=O)(=O)N(CC#N)c1ccc(CC(=O)N2CCN(c3ncnc4sc(CC(F)(F)F)cc34)CC2)cc1` [Compound 61]: < 0.1 µM; `CC1(C)CN=C(N2CCN(c3ncnc4sc(CCc5ccccc5)cc34)CC2)S1` [Compound 35]: 0.5 to 2 µM.
Next, `Cc1c(CN2CCC(Nc3ncnc4sc(CC(F)(F)F)cc34)CC2)c(O)cc2c1cc(C#N)n2Cc1cn[nH]c1` [Compound 388]: < 0.1 µM; `CCCCS(=O)(=O)Nc1ccc(CC(=O)N2CCN(c3ncnc4sc(CC(F)(F)F)cc34)CC2)cc1` [Compound 54]: < 0.1 µM.
The result for `Cc1c(CN2CCC(Nc3ncnc4sc(CC(F)(F)F)cc34)CC2)c(O)cc2c1cc(C#N)n2Cc1c[nH]nn1` [Compound 391] reads < 0.1 µM.
Regarding `Nc1cccc(CN2CCC(Nc3ncnc4sc(CC(F)(F)F)cc34)CC2)c1` [Compound 157], the IC50 was in the range of 0.5 to 2 µM.
The result for `COCc1cnc2sc(CC(F)(F)F)cc2c1NC1CCN(Cc2ccc3[nH]c(C#N)cc3c2)CC1` [Compound 281] reads 0.1 to 0.5 µM.
Next, `N#Cc1cc2c(CN)c(CN3CCC(Nc4ncnc5sc(CC(F)(F)F)cc45)CC3)ccc2[nH]1` [Compound 294]: < 0.1 µM.
Next, `CNC(=O)CCn1c(C#N)cc2cc(CN3CCC(Nc4ncnc5sc(CC(F)(F)F)cc45)CC3)ccc21` [Compound 239]: 0.1 to 0.5 µM; `OCc1ccccc1CN1CCC(Nc2ncnc3sc(CC(F)(F)F)cc23)CC1` [Compound 110]: 0.1 to 0.5 µM; `N#Cc1cc2c(Cl)c(CN3CCC(Nc4ncnc5sc(CC(F)(F)F)cc45)CC3)ccc2[nH]1` [Compound 224]: < 0.1 µM.

The values are drawn from patent US9505781B2, “Compositions comprising thienopyrimidine and thienopyridine compounds and methods of use thereof” (The Regents of the University of Michigan, priority 2013, dated 2016).
